{"source": "patent US20240325431A1", "about": "“COMPOSITION FOR PURIFICATION OF BIOFLUIDS” (BEACON MEDCARE (HK) LIMITED, priority 2018, published 2024)", "origin": "cited, not measured here", "system": "plasma protein"}
{"compound": "C[C@H]1O[C@@H](O[C@H]2[C@@H](O)C[C@H](O[C@H]3[C@@H](O)C[C@H](O[C@H]4CC[C@@]5(C)[C@H](CC[C@@H]6[C@@H]5CC[C@]5(C)[C@@H](C7=CC(=O)OC7)CC[C@]65O)C4)O[C@@H]3C)O[C@@H]2C)C[C@H](O)[C@@H]1O", "note": "[digitoxin]", "values": [{"measurement": "binding rate to plasma protein", "value": 91, "unit": "%"}]}
{"compound": "CN1C(C(=O)Nc2ccccn2)=C(O)c2sccc2S1(=O)=O", "note": "[tenoxicam]", "values": [{"measurement": "binding rate to plasma protein", "value": 99, "unit": "%"}]}
